Legend:
[1] = target: T1, BRD4 bromo domain 1 [BRD4(1)] (Homo sapiens, UniProt O60885); assay: BRD4(1)/acetylated peptide H4 binding assay (TR-FRET); details: inhibition of interaction between His6-tagged BRD4(1) (amino acids 67-152) and acetylated histone H4 peptide
T1 construct: N-terminally His6-tagged BRD4(1) (amino acids 67-152); made in house; host or cells: E. coli
Method in brief: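 IC50 came from a 4-parameter fit of the 665/620 nm emission ratio, normalised to DMSO and no-protein controls. His6-tagged BRD4(1) residues 67-152 (typically 10 nM final) was preincubated 10 min with compound (0.1 nM to 20 μM, duplicates), then exposed to Ac-H4-biotin peptide at 22 °C for 1 h and 4 °C for at least 3 h.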

MOLM-13 cell line = assay: MOLM-13 cell proliferation assay (alamarBlue); format: cell-based; details: Homo sapiens, inhibition of proliferation of MOLM-13 cells (acute myeloid leukaemia), 96 hours incubation
Experimental: In accordance with the invention, the substances were tested for their ability to inhibit the proliferation of the MOLM-13 cell linie (Deutsche Sammlung für Mikroorganismen und Zellkulturen [German Collection of Microorganisms and Cell Cultures], ACC 554; acute myeloid leukaemia). Cell viability was determined by means of the alamarBlue® reagent (Invitrogen) in a Victor X3 Multilabel Reader (Perkin Elmer). The excitation wavelength was 530 nm and the emission wavelength […].
The MOLM-13 cells were sown at a density of 4000 cells/well in 100 μl of growth medium on 96-well microtitre plates. After overnight incubation at 37° C., the fluorescence values were determined (CI values). The plates were then treated with various substance dilutions and incubated at 37° C. for 96 hours. Subsequently, the fluorescence values were determined (CO values). For the data analysis, the CI values were subtracted from the CO values and the results were compared between cells which had been treated with various dilutions of the substance or only with buffer solution. The IC50 values (substance concentration needed for 50% inhibition of cell proliferation) were calculated therefrom.

[2] = target: T2, BRD4 bromo domain 2 [BRD4(2)] (Homo sapiens, UniProt O60885); assay: BRD4(2)/acetylated peptide H4 binding assay (TR-FRET); details: inhibition of interaction between His6-tagged BRD4(2) (amino acids 357-445) and acetylated histone H4 peptide
T2 construct: N-terminally His6-tagged BRD4(2) (amino acids 357-445); made in house; host or cells: E. coli
Method in brief: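 Compounds (0.1 nM to 20 μM, 11 points, duplicates) preincubated 10 min at 22 °C with 100 nM His6-tagged BRD4(2) residues 357-445, then Ac-H4-biotin peptide added; incubated 1 h at 22 °C and 3 h-overnight at 4 °C. Eu/XL665 emission ratio normalised to DMSO and no-protein controls; 4-parameter IC50.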

| Structure (SMILES) | IC50 [1] [nM] | IC50 (MOLM-13 cell line) [nM] | IC50 [2] [nM] |
| --- | --- | --- | --- |
| COc1cc(C(=O)NC2CCN(C)CC2)ccc1Nc1ccc2c(n1)N(C1CCCC1)[C@H](C)C(=O)N2C [Example 1, 4-{[(3R)-4-Cyclopentyl-1,3-dimethyl-2-oxo-1,2,3,4-tetrahydropyrido[2,3-b]pyrazin-6-yl]amino}-3-methoxy-N-(1-methylpiperidin-4-yl)benzamide] | 260 | 176 | 138 |
| COc1cc(C(=O)NC2CCN(C)CC2)ccc1Nc1ccc2c(n1)N(C(C)C)[C@H](C)C(=O)N2C [Example 2, 4-{[(3R)-1,3-Dimethyl-2-oxo-4-(propan-2-yl)-1,2,3,4-tetrahydropyrido[2,3-b]pyrazin-6-yl]amino}-3-methoxy-N-(1-methylpiperidin-4-yl)benzamide] | 501 | 2360 | 622 |
| COc1cc(C(=O)NCCN2CCOCC2)ccc1Nc1ccc2c(n1)N(C(C)C)[C@H](C)C(=O)N2C [Example 3, 4-{[(3R)-1,3-Dimethyl-2-oxo-4-(propan-2-yl)-1,2,3,4-tetrahydropyrido[2,3-b]pyrazin-6-yl]amino}-3-methoxy-N-[2-(morpholin-4-yl)ethyl]benzamide] | 131 | 630 | 472 |
| COc1cc(C(=O)NCCN2CCN(C(=O)OC(C)(C)C)CC2)ccc1Nc1ccc2c(n1)N(C(C)C)[C@H](C)C(=O)N2C [Example 4, 1-tert-Butyl 4-{2-[(4-{[(3R)-1,3-dimethyl-2-oxo-4-(propan-2-yl)-1,2,3,4-tetrahydropyrido[2,3-b]pyrazin-6-yl]amino}-3-methoxybenzoyl)amino]ethyl}piperazinecarboxylate] | 374 | 1110 | 234 |
| COc1cc(C(=O)NCCN(C)C)ccc1Nc1ccc2c(n1)N(C(C)C)[C@H](C)C(=O)N2C [Example 5, N-[2-(Dimethylamino)ethyl]-4-{[(3R)-1,3-dimethyl-2-oxo-4-(propan-2-yl)-1,2,3,4-tetrahydropyrido[2,3-b]pyrazin-6-yl]amino}-3-methoxybenzamide] | 93 | 503 | – |
| COc1cc(C(=O)NC2CCCC2)ccc1Nc1ccc2c(n1)N(C(C)C)[C@H](C)C(=O)N2C [Example 6, N-Cyclopentyl-4-{[(3R)-1,3-dimethyl-2-oxo-4-(propan-2-yl)-1,2,3,4-tetrahydropyrido[2,3-b]pyrazin-6-yl]amino}-3-methoxybenzamide] | 255 | 762 | – |
| C[C@@H]1C(=O)N(C)c2ccc(Nc3ccc(C(=O)N4CC5(CCS5(=O)=O)C4)cc3)nc2N1C1CCCC1 [Example 7, (3R)-4-Cyclopentyl-6-({4-[(1,1-dioxido-1-thia-6-azaspiro[3.3]hept-6-yl)carbonyl]phenyl}amino)-1,3-dimethyl-3,4-dihydropyrido[2,3-b]pyrazin-2(1H)-one] | 91 | 377 | – |
| COc1cc(C(=O)N2CC3(CCS3(=O)=O)C2)ccc1Nc1ccc2c(n1)N(C(C)C)[C@H](C)C(=O)N2C [Example 8, (3R)-6-({4-[(1,1-Dioxido-1-thia-6-azaspiro[3.3]hept-6-yl)carbonyl]-2-methoxyphenyl}amino)-4-isopropyl-1,3-dimethyl-3,4-dihydropyrido[2,3-b]pyrazin-2(1H)-one] | 141 | 362 | 83 |
| COc1cc(C(=O)NCCN(C)C)ccc1Nc1ccc2c(n1)N(C1CCOCC1)[C@H](C)C(=O)N2C [Example 46, N-[2-(Dimethyalmino)ethyl]-4-{[(3R)-1,3-dimethyl-2-oxo-4-(tetrahydro-2H-pyran-4-yl)-1,2,3,4-tetrahydropyrido[2,3-b]pyrazin-6-yl]amino}-3-methoxybenzamide] | 52 | 461 | – |
| CC(C)N1c2nc(Nc3ccc(C(=O)N[C@H]4CC[C@H](N5CCN(CC6CC6)CC5)CC4)cc3)ccc2N(C)C(=O)[C@H]1C [Example 96, N-{trans-4-[4-(Cyclopropylmethyl)piperazin-1-yl]cyclohexyl}-4-{[(3R)-1,3-dimethyl-2-oxo-4-(propan-2-yl)-1,2,3,4-tetrahydropyrido[2,3-b]pyrazin-6-yl]amino}benzamide] | 438 | – | 344 |
| COc1cc(C(=O)NC2CCC(O)CC2)ccc1Nc1ccc2c(n1)N(C(C)C)[C@H](C)C(=O)N2C (stereo partly drawn) [Example 97, 4-{[(3R)-1,3-Dimethyl-2-oxo-4-(propan-2-yl)-1,2,3,4-tetrahydropyrido[2,3-b]pyrazin-6-yl]amino}-N-(4-hydroxycyclohexyl)-3-methoxybenzamide] | 261 | – | 117 |
| CC(C)N1c2nc(Nc3ccc(C(=O)NC4CCN(C)CC4)cc3)ccc2N(C)C(=O)[C@H]1C [Example 98, 4-{[(3R)-1,3-Dimethyl-2-oxo-4-(propan-2-yl)-1,2,3,4-tetrahydropyrido[2,3-b]pyrazin-6-yl]amino}-N-(1-methylpiperidin-4-yl)benzamide] | 281 | – | 98 |
| COCCN1c2nc(Nc3ccc(C(=O)NC4CCN(C)CC4)cc3)ccc2N(C)C(=O)C1C (stereo not drawn) [Example 104, 4-{[4-(2-Methoxyethyl)-1,3-dimethyl-2-oxo-1,2,3,4-tetrahydropyrido[2,3-b]pyrazin-6-yl]amino}-N-(1-methylpiperidin-4-yl)benzamide] | 621 | – | 217 |
| COCCN1c2nc(Nc3ccc(C(=O)N[C@H]4CC[C@H](N5CCN(CC6CC6)CC5)CC4)cc3)ccc2N(C)C(=O)C1C (stereo partly drawn) [Example 105, N-{trans-4-[4-(Cyclopropylmethyl)piperazin-1-yl]cyclohexyl}-4-{[4-(2-methoxyethyl)-1,3-dimethyl-2-oxo-1,2,3,4-tetrahydropyrido[2,3-b]pyrazin-6-yl]amino}benzamide] | 452 | – | 187 |
| C[C@@H]1C(=O)N(C)c2ccc(Nc3ccc(S(=O)(=O)N(C)C)cc3)nc2N1C1CCN(C(=O)OC(C)(C)C)CC1 [Example 106, tert-Butyl 4-[(3R)-6-{[4-(dimethylsulphamoyl)phenyl]amino}-1,3-dimethyl-2-oxo-2,3-dihydropyrido[2,3-b]pyrazin-4(1H)-yl]piperidine-1-carbonate] | 632 | – | 463 |
| C[C@@H]1C(=O)N(C)c2ccc(Nc3ccc(S(=O)(=O)NC4CCN(C)CC4)cc3)nc2N1c1ccccc1 [Example 108, 4-{[(3R)-1,3-Dimethyl-2-oxo-4-phenyl-1,2,3,4-tetrahydropyrido[2,3-b]pyrazin-6-yl]amino}-N-(1-methylpiperidin-4-yl)benzenesulphonamide] | 63 | – | 239 |
| C[C@@H]1C(=O)N(C)c2ccc(Nc3ccc(S(=O)(=O)N[C@H]4CC[C@H](N5CCN(CC6CC6)CC5)CC4)cc3)nc2N1Cc1ccccc1 [Example 109, 4-{[(3R)-4-Benzyl-1,3-dimethyl-2-oxo-1,2,3,4-tetrahydropyrido[2,3-b]pyrazin-6-yl]amino}-N-{trans-4-[4-(cyclopropylmethyl)piperazin-1-yl]cyclohexyl}benzenesulphonamide] | 36 | – | 78 |
| COc1cc(S(=O)(=O)NC2CCN(C)CC2)ccc1Nc1ccc2c(n1)N(C1CCOCC1)[C@H](C)C(=O)N2C [Example 110, 4-{[(3R)-1,3-Dimethyl-2-oxo-4-(tetrahydro-2H-pyran-4-yl)-1,2,3,4-tetrahydropyrido[2,3-b]pyrazin-6-yl]amino}-3-methoxy-N-(1-methylpiperidin-4-yl)benzenesulphonamide] | 38 | – | 55 |
| COc1cc(S(=O)(=O)N[C@H]2CC[C@H](N3CCN(CC4CC4)CC3)CC2)ccc1Nc1ccc2c(n1)N(C1CCOCC1)[C@H](C)C(=O)N2C [Example 111, N-{trans-4-[4-(Cyclopropylmethyl)piperazin-1-yl]cyclohexyl}-4-{[(3R)-1,3-dimethyl-2-oxo-4-(tetrahydro-2H-pyran-4-yl)-1,2,3,4-tetrahydropyrido[2,3-b]pyrazin-6-yl]amino}-3-methoxybenzenesulphonamide] | 29 | – | 130 |
| COc1cc(S(=O)(=O)N2CCN(C)CC2)ccc1Nc1ccc2c(n1)N(C1CCOCC1)[C@H](C)C(=O)N2C [Example 112, (3R)-6-({2-Methoxy-4-[(4-methylpiperazin-1-yl)sulphonyl]phenyl}amino)-1,3-dimethyl-4-(tetrahydro-2H-pyran-4-yl)-3,4-dihydropyrido[2,3-b]pyrazin-2(1H)-one] | 106 | – | 86 |

Source: patent US20160193206A1, “BET-PROTEIN-INHIBITING DIHYDROPYRIDOPYRAZINONES” (BAYER PHARMA AKTIENGESELLSCHAFT, priority 2012, published 2016)
